The supplement of paper PMC10883282

Legend:
Assay in all cases: relative viability vs DMSO control (72 h) (fraction); higher = more viable cells
VA-ES-BJ = test system: VA-ES-BJ
In short: (§1)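 Sarcoma cell lines were grown in 384-well plates seeded toward 80–90% confluence and exposed 24 h later to serially diluted compound. After 72 h at 37 °C and 5% CO2, with 0.1% DMSO vehicle and a 5 µM positive control on the plates, ATPLite was read. Relative viability, given as percent growth averaged over up to triplicate wells, was rescaled so that 1 is full and 0 is none.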

SK-LMS-1 = test system: SK-LMS-1
In short: as §1

SW982 = test system: SW982
In short: as §1

MES-SA = test system: MES-SA
In short: as §1

SW1353 = test system: SW1353
In short: as §1

SK-ES-1 = test system: SK-ES-1
In short: as §1

RD-ES = test system: RD-ES
In short: as §1

G401 = test system: G401
In short: as §1

HT1080 = test system: HT1080
In short: as §1

KHOS-240S = test system: KHOS-240S
In short: as §1

SYO-1 = test system: SYO-1
In short: as §1

RD = test system: RD
In short: as §1

O=S(=O)(c1cccc2c(O)nccc12)N1CCCNCC1 [Hydroxyfasudil]
Settings	relative viability
G401, 0.00017 µM	1.02
G401, 0.00051 µM	1.05
G401, 0.00152 µM	1.03
G401, 0.00457 µM	1.05
G401, 0.01372 µM	1.052
G401, 0.04115 µM	1.05
G401, 0.1235 µM	1.03
G401, 0.3704 µM	1.03
G401, 1.111 µM	1.038
G401, 3.333 µM	1.01
G401, 10 µM	0.944
HT1080, 0.00017 µM	1.1
HT1080, 0.00051 µM	1.09
HT1080, 0.00152 µM	1.13
HT1080, 0.00457 µM	1.06
HT1080, 0.01372 µM	1.1
HT1080, 0.04115 µM	1.099
HT1080, 0.1235 µM	1.102
HT1080, 0.3704 µM	1.1
HT1080, 1.111 µM	1.139
HT1080, 3.333 µM	1.1
HT1080, 10 µM	1.1
KHOS-240S, 0.00017 µM	1.1
KHOS-240S, 0.00051 µM	1.1
KHOS-240S, 0.00152 µM	1.1
KHOS-240S, 0.00457 µM	1.11
KHOS-240S, 0.01372 µM	1.1
KHOS-240S, 0.04115 µM	1.1
KHOS-240S, 0.1235 µM	1.11
KHOS-240S, 0.3704 µM	1.1
KHOS-240S, 1.111 µM	1.04
KHOS-240S, 3.333 µM	0.998
KHOS-240S, 10 µM	0.906
MES-SA, 0.00017 µM	0.981
MES-SA, 0.00051 µM	0.973
MES-SA, 0.00152 µM	0.93
MES-SA, 0.00457 µM	0.962
MES-SA, 0.01372 µM	0.944
MES-SA, 0.04115 µM	0.92
MES-SA, 0.1235 µM	0.96
MES-SA, 0.3704 µM	0.942
MES-SA, 1.111 µM	0.934
MES-SA, 3.333 µM	0.879
MES-SA, 10 µM	0.819
RD, 0.00017 µM	1.089
RD, 0.00051 µM	1.14
RD, 0.00152 µM	1.16
RD, 0.00457 µM	1.14
RD, 0.01372 µM	1.15
RD, 0.04115 µM	1.16
RD, 0.1235 µM	1.15
RD, 0.3704 µM	1.16
RD, 1.111 µM	1.17
RD, 3.333 µM	1.17
RD, 10 µM	1.18
RD-ES, 0.00017 µM	0.996
RD-ES, 0.00051 µM	1.02
RD-ES, 0.00152 µM	1
RD-ES, 0.00457 µM	1.01
RD-ES, 0.01372 µM	1.01
RD-ES, 0.04115 µM	1.011
RD-ES, 0.1235 µM	1.03
RD-ES, 0.3704 µM	1.04
RD-ES, 1.111 µM	1.03
RD-ES, 3.333 µM	1.04
RD-ES, 10 µM	1.06
SK-ES-1, 0.00017 µM	1.09
SK-ES-1, 0.00051 µM	1.09
SK-ES-1, 0.00152 µM	1.06
SK-ES-1, 0.00457 µM	1.05
SK-ES-1, 0.01372 µM	1.07
SK-ES-1, 0.04115 µM	1.1
SK-ES-1, 0.1235 µM	1.06
SK-ES-1, 0.3704 µM	1.08
SK-ES-1, 1.111 µM	1.07
SK-ES-1, 3.333 µM	1.04
SK-ES-1, 10 µM	1.02
SK-LMS-1, 0.00017 µM	1.01
SK-LMS-1, 0.00051 µM	1.06
SK-LMS-1, 0.00152 µM	1.01
SK-LMS-1, 0.00457 µM	1.06
SK-LMS-1, 0.01372 µM	1.04
SK-LMS-1, 0.04115 µM	1.06
SK-LMS-1, 0.1235 µM	0.983
SK-LMS-1, 0.3704 µM	0.99
SK-LMS-1, 1.111 µM	0.99
SK-LMS-1, 3.333 µM	0.987
SK-LMS-1, 10 µM	0.869
SW982, 0.00017 µM	1.02
SW982, 0.00051 µM	1.05
SW982, 0.00152 µM	1.05
SW982, 0.00457 µM	1.081
SW982, 0.01372 µM	1.05
SW982, 0.04115 µM	1.06
SW982, 0.1235 µM	1.073
SW982, 0.3704 µM	1.06
SW982, 1.111 µM	1.04
SW982, 3.333 µM	1.041
SW982, 10 µM	0.92
SW1353, 0.00017 µM	1.06
SW1353, 0.00051 µM	1.07
SW1353, 0.00152 µM	1.05
SW1353, 0.00457 µM	1.07
SW1353, 0.01372 µM	1.01
SW1353, 0.04115 µM	1.01
SW1353, 0.1235 µM	1.038
SW1353, 0.3704 µM	1.036
SW1353, 1.111 µM	0.96
SW1353, 3.333 µM	0.913
SW1353, 10 µM	0.775
SYO-1, 0.00017 µM	1
SYO-1, 0.00051 µM	0.996
SYO-1, 0.00152 µM	0.97
SYO-1, 0.00457 µM	0.993
SYO-1, 0.01372 µM	0.96
SYO-1, 0.04115 µM	0.96
SYO-1, 0.1235 µM	0.983
SYO-1, 0.3704 µM	0.894
SYO-1, 1.111 µM	0.919
SYO-1, 3.333 µM	0.904
SYO-1, 10 µM	0.846
VA-ES-BJ, 0.00017 µM	1.07
VA-ES-BJ, 0.00051 µM	1.1
VA-ES-BJ, 0.00152 µM	1.11
VA-ES-BJ, 0.00457 µM	1.08
VA-ES-BJ, 0.01372 µM	1.07
VA-ES-BJ, 0.04115 µM	1.061
VA-ES-BJ, 0.1235 µM	1.06
VA-ES-BJ, 0.3704 µM	1.09
VA-ES-BJ, 1.111 µM	1.01
VA-ES-BJ, 3.333 µM	1.01
VA-ES-BJ, 10 µM	0.998

C#Cc1cccc(Nc2ncnc3cc4c(cc23)OCCOCCOCCO4)c1 [Icotinib]
Settings	relative viability
G401, 0.00017 µM	1.04
G401, 0.00051 µM	1.05
G401, 0.00152 µM	1.04
G401, 0.00457 µM	1.06
G401, 0.01372 µM	1.05
G401, 0.04115 µM	1.05
G401, 0.1235 µM	1.02
G401, 0.3704 µM	1.04
G401, 1.111 µM	1.06
G401, 3.333 µM	1.03
G401, 10 µM	1.02
HT1080, 0.00017 µM	1.08
HT1080, 0.00051 µM	1.11
HT1080, 0.00152 µM	1.09
HT1080, 0.00457 µM	1.1
HT1080, 0.01372 µM	1.11
HT1080, 0.04115 µM	1.08
HT1080, 0.1235 µM	1.1
HT1080, 0.3704 µM	1.11
HT1080, 1.111 µM	1.069
HT1080, 3.333 µM	1.08
HT1080, 10 µM	1.06
KHOS-240S, 0.00017 µM	1.07
KHOS-240S, 0.00051 µM	1.1
KHOS-240S, 0.00152 µM	1.1
KHOS-240S, 0.00457 µM	1.1
KHOS-240S, 0.01372 µM	1.1
KHOS-240S, 0.04115 µM	1.09
KHOS-240S, 0.1235 µM	1.1
KHOS-240S, 0.3704 µM	1.09
KHOS-240S, 1.111 µM	1.09
KHOS-240S, 3.333 µM	1.04
KHOS-240S, 10 µM	1.03
MES-SA, 0.00017 µM	0.972
MES-SA, 0.00051 µM	0.945
MES-SA, 0.00152 µM	0.958
MES-SA, 0.00457 µM	0.937
MES-SA, 0.01372 µM	0.936
MES-SA, 0.04115 µM	0.952
MES-SA, 0.1235 µM	0.952
MES-SA, 0.3704 µM	0.922
MES-SA, 1.111 µM	0.912
MES-SA, 3.333 µM	0.869
MES-SA, 10 µM	0.8
RD, 0.00017 µM	1.09
RD, 0.00051 µM	1.1
RD, 0.00152 µM	1.13
RD, 0.00457 µM	1.124
RD, 0.01372 µM	1.15
RD, 0.04115 µM	1.08
RD, 0.1235 µM	1.12
RD, 0.3704 µM	1.15
RD, 1.111 µM	1.1
RD, 3.333 µM	1.15
RD, 10 µM	1.14
RD-ES, 0.00017 µM	0.983
RD-ES, 0.00051 µM	0.998
RD-ES, 0.00152 µM	0.989
RD-ES, 0.00457 µM	1.01
RD-ES, 0.01372 µM	0.991
RD-ES, 0.04115 µM	0.982
RD-ES, 0.1235 µM	0.976
RD-ES, 0.3704 µM	0.991
RD-ES, 1.111 µM	0.973
RD-ES, 3.333 µM	0.977
RD-ES, 10 µM	0.959
SK-ES-1, 0.00017 µM	1.03
SK-ES-1, 0.00051 µM	1.06
SK-ES-1, 0.00152 µM	1.06
SK-ES-1, 0.00457 µM	1.01
SK-ES-1, 0.01372 µM	1.073
SK-ES-1, 0.04115 µM	1.08
SK-ES-1, 0.1235 µM	1.068
SK-ES-1, 0.3704 µM	1.07
SK-ES-1, 1.111 µM	0.998
SK-ES-1, 3.333 µM	1.01
SK-ES-1, 10 µM	0.934
SK-LMS-1, 0.00017 µM	1.08
SK-LMS-1, 0.00051 µM	1.05
SK-LMS-1, 0.00152 µM	1.07
SK-LMS-1, 0.00457 µM	1.07
SK-LMS-1, 0.01372 µM	1.07
SK-LMS-1, 0.04115 µM	1.06
SK-LMS-1, 0.1235 µM	1.04
SK-LMS-1, 0.3704 µM	1.09
SK-LMS-1, 1.111 µM	1.05
SK-LMS-1, 3.333 µM	1.033
SK-LMS-1, 10 µM	0.998
SW982, 0.00017 µM	1.01
SW982, 0.00051 µM	1.03
SW982, 0.00152 µM	1.04
SW982, 0.00457 µM	1.03
SW982, 0.01372 µM	1.049
SW982, 0.04115 µM	1.06
SW982, 0.1235 µM	1.06
SW982, 0.3704 µM	1.05
SW982, 1.111 µM	0.999
SW982, 3.333 µM	0.9946
SW982, 10 µM	0.977
SW1353, 0.00017 µM	1.06
SW1353, 0.00051 µM	1.04
SW1353, 0.00152 µM	1.03
SW1353, 0.00457 µM	1.07
SW1353, 0.01372 µM	1.045
SW1353, 0.04115 µM	1.01
SW1353, 0.1235 µM	1.01
SW1353, 0.3704 µM	0.976
SW1353, 1.111 µM	0.952
SW1353, 3.333 µM	0.914
SW1353, 10 µM	0.847
SYO-1, 0.00017 µM	1.01
SYO-1, 0.00051 µM	1.03
SYO-1, 0.00152 µM	1.01
SYO-1, 0.00457 µM	0.968
SYO-1, 0.01372 µM	0.989
SYO-1, 0.04115 µM	0.979
SYO-1, 0.1235 µM	0.982
SYO-1, 0.3704 µM	0.98
SYO-1, 1.111 µM	0.966
SYO-1, 3.333 µM	0.892
SYO-1, 10 µM	0.855
VA-ES-BJ, 0.00017 µM	1.09
VA-ES-BJ, 0.00051 µM	1.1
VA-ES-BJ, 0.00152 µM	1.1
VA-ES-BJ, 0.00457 µM	1.06
VA-ES-BJ, 0.01372 µM	1.08
VA-ES-BJ, 0.04115 µM	1.07
VA-ES-BJ, 0.1235 µM	1.08
VA-ES-BJ, 0.3704 µM	1.08
VA-ES-BJ, 1.111 µM	1.05
VA-ES-BJ, 3.333 µM	1.04
VA-ES-BJ, 10 µM	1.01
